According to PMC6630832, “3-Vinylazetidin-2-Ones: Synthesis, Antiproliferative and Tubulin Destabilizing Activity in MCF-7 and MDA-MB-231 Breast Cancer Cells” (Pharmaceuticals, 2019):

Tests used:
[1] = tested on: human MCF-7 breast cancer cells; assay: Cell viability (Alamar Blue) antiproliferative assay in MCF-7 cells; format: cell-based; conditions: Homo sapiens, MCF7, 72 h, human MCF-7 breast cancer cells; 72 h; mean ± SEM; read-out: Antiproliferative Activity IC50
Method: The human breast carcinoma cell line MCF-7, was purchased from the European Collection of Animal Cell Cultures (ECACC) and was cultured in Eagle’s minimum essential medium with 10% fetal bovine serum, 2 mM L-glutamine and 100 μg/mL penicillin/streptomycin. The medium was supplemented with 1% non-essential amino acids. The human breast carcinoma cell line MDA-MB-231 was purchased from the European Collection of Animal Cell Cultures (ECACC). MDA-MB-231 cells were maintained in Dulbecco’s modified Eagle’s medium (DMEM) supplemeted with 10% (v/v) fetal bovine serum, 2 mM L-glutamine and 100 μg/mL penicillin/streptomycin (complete medium). All media contained 100 U/mL penicillin and 100 μg/mL streptomycin. Triple negative breast cancer Hs578T cells and its invasive variant Hs578Ts(i)8 were obtained as a kind gift from Dr. Susan McDonnell, School of Chemical and Bioprocess Engineering, University College Dublin and were cultured in Dulbecco’s Modified Eagle’s Media (DMEM) with GlutaMAX^TM-I, with the same supplement as for MDA-MB-231 cells in the absence of non-essential amino acids. HEK-293T normal epithelial embryonic kidney cells were cultured in Dulbecco’s Modified Eagle’s Medium (DMEM) with GlutaMAX^TM-I in the absence of non-essential amino acids. K562 and HL-60 cells were originally obtained from the European Collection of Cell Cultures (Salisbury, UK).The K562 cells were derived from a patient in the blast crisis stage of CML HL-60 cells were derive from a patient with acute myeloid leukaemia. Cells were cultured in RPMI-1640 Glutamax medium supplemented with 10% FCS media, and 100 μg/mL penicillin/streptomycin. Cells were maintained at 37 °C in 5% CO2 in a humidified incubator. All cells were sub-cultured three times/week (adherent cells by trypsinisation).
Cells were seeded at a density of 5 × 10^3 cells/well (MCF-7), in triplicate in 96-well plates. After 24 h, cells were then treated with either medium alone, vehicle [1% ethanol (v/v)] or with serial dilutions of CA-4 or β-lactam analogue. Cell viability for MCF-7 and MDA-MB-231 was analysed using the Alamar Blue assay (Invitrogen Corp, Thermo Fisher Scientific, 168 Third Avenue, Waltham, MA, USA) according to the manufacturer’s instructions. After 72 h, Alamar Blue [10% (v/v)] was added to each well and plates were incubated for 3–5 h at 37 °C in the dark. Fluorescence was read using a 96-well fluorimeter with excitation at 530 nm and emission at 590 nm. Results were expressed as percentage viability relative to vehicle control (100%). Dose response curves were plotted and IC50 values (concentration of drug resulting in 50% reduction in cell survival) were obtained using the commercial software package Prism (GraphPad Software, Inc., 2365 Northside, Suite 560, San Diego, CA, USA). Experiments were performed in triplicate on at least three separate occasions.

SMILES	melting point [°C]	IC50 [1] [µM]
C=CC1C(=O)N(c2cc(OC)c(OC)c(OC)c2)C1c1ccc(F)cc1 (stereo not shown) [Compound 7a, 4-(4-Fluorophenyl)-1-(3,4,5-trimethoxyphenyl)-3-vinylazetidin-2-one]	147 to 149	8.31 ± 1.4
C=CC1C(=O)N(c2cc(OC)c(OC)c(OC)c2)C1c1ccc(Br)cc1 (stereo not shown) [Compound 7c, 4-(4-Bromophenyl)-1-(3,4,5-trimethoxyphenyl)-3-vinylazetidin-2-one]		0.445 ± 0.07
C=CC1C(=O)N(c2cc(OC)c(OC)c(OC)c2)C1c1ccc(N(C)C)cc1 (stereo not shown) [Compound 7e, 4-(4-Dimethylaminophenyl)-1-(3,4,5-trimethoxyphenyl)-3-vinylazetidin-2-one]		4.05 ± 0.45
C=CC1C(=O)N(c2cc(OC)c(OC)c(OC)c2)C1c1ccccc1 (stereo not shown) [Compound 7f, 4-Phenyl-1-(3,4,5-trimethoxyphenyl)-3-vinylazetidin-2-one]	109 to 111	4.03 ± 0.42
C=CC1C(=O)N(c2cc(OC)c(OC)c(OC)c2)C1c1ccc(C)cc1 (stereo not shown) [Compound 7g, 4-p-Tolyl-1-(3,4,5-trimethoxyphenyl)-3-vinylazetidin-2-one]	106 to 107	0.355 ± 0.03
C=CC1C(=O)N(c2cc(OC)c(OC)c(OC)c2)C1c1ccc(OCCCC)cc1 (stereo not shown) [Compound 7j, 4-(4-Butoxyphenyl)-1-(3,4,5-trimethoxyphenyl)-3-vinylazetidin-2-one]	100 to 102	14 ± 1.81
C=CC1C(=O)N(c2cc(OC)c(OC)c(OC)c2)C1c1ccc(Oc2ccccc2)cc1 (stereo not shown) [Compound 7k, 4-(4-Phenoxyphenyl)-1-(3,4,5-trimethoxyphenyl)-3-vinylazetidin-2-one]	128 to 130	57 ± 3.72
C=CC1C(=O)N(c2cc(OC)c(OC)c(OC)c2)C1c1ccc(OCc2ccccc2)cc1 (stereo not shown) [Compound 7l, 4-(4-Benzyloxyphenyl)-1-(3,4,5-trimethoxyphenyl)-3-vinylazetidin-2-one]	148 to 149	8.02 ± 0.63
C=CC1C(=O)N(c2cc(OC)c(OC)c(OC)c2)C1c1cccc2ccccc12 (stereo not shown) [Compound 7m, 4-Naphthalen-1-yl-1-(3,4,5-trimethoxyphenyl)-3-vinylazetidin-2-one]	121 to 122	1.74 ± 0.17
C=CC1C(=O)N(c2cc(OC)c(OC)c(OC)c2)C1c1ccc(OC)c([N+](=O)[O-])c1 (stereo not shown) [Compound 7p, 4-(4-Methoxy-3-nitrophenyl)-1-(3,4,5-trimethoxyphenyl)-3-vinylazetidin-2-one]		0.618 ± 0.1
C=CC1C(=O)N(c2ccc(F)cc2)C1c1cc(OC)c(OC)c(OC)c1 (stereo not shown) [Compound 8a, 4-(3,4,5-Trimethoxyphenyl)-1-(4-fluorophenyl)-3-vinylazetidin-2-one]		1.07 ± 0.14
C=CC1C(=O)N(c2ccc(Cl)cc2)C1c1cc(OC)c(OC)c(OC)c1 (stereo not shown) [Compound 8b, 4-(3,4,5-Trimethoxyphenyl)-1-(4-chlorophenyl)-3-vinylazetidin-2-one]	131 to 133	29.2 ± 1.14
C=CC1C(=O)N(c2ccc(Br)cc2)C1c1cc(OC)c(OC)c(OC)c1 (stereo not shown) [Compound 8c, 4-(3,4,5-Trimethoxyphenyl)-1-(4-bromophenyl)-3-vinylazetidin-2-one]	120 to 122	10.4 ± 0.87
C=CC1C(=O)N(c2ccc([N+](=O)[O-])cc2)C1c1cc(OC)c(OC)c(OC)c1 (stereo not shown) [Compound 8d, 4-(3,4,5-Trimethoxyphenyl)-1-(4-nitrophenyl)-3-vinylazetidin-2-one]		59.1 ± 4.16
C=CC1C(=O)N(c2ccc(C(C)(C)C)cc2)C1c1cc(OC)c(OC)c(OC)c1 (stereo not shown) [Compound 8e, 4-(3,4,5-Trimethoxyphenyl)-1-(4-tert-butylphenyl)-3-vinylazetidin-2-one]	172 to 174	68.8 ± 3.63
C=CC1C(=O)N(c2ccccc2)C1c1cc(OC)c(OC)c(OC)c1 (stereo not shown) [Compound 8f, 4-(3,4,5-Trimethoxyphenyl)-1-phenyl-3-vinylazetidin-2-one]	150 to 151	50.5 ± 4.25
C=CC1C(=O)N(c2ccc(C)cc2)C1c1cc(OC)c(OC)c(OC)c1 (stereo not shown) [Compound 8g, 4-(3,4,5-Trimethoxyphenyl)-1-p-tolyl-3-vinylazetidin-2-one]		43.1 ± 2.16
C=CC1C(=O)N(c2ccc(CC)cc2)C1c1cc(OC)c(OC)c(OC)c1 (stereo not shown) [Compound 8h, 4-(3,4,5-Trimethoxyphenyl)-1-(4-ethylphenyl)-3-vinylazetidin-2-one]	110 to 112	36.4 ± 2.13
C=CC1C(=O)N(c2ccc(OC)cc2)C1c1cc(OC)c(OC)c(OC)c1 (stereo not shown) [Compound 8i, 4-(3,4,5-Trimethoxyphenyl)-1-(4-methoxyphenyl)-3-vinylazetidin-2-one]		65.1 ± 5.55
C=CC1C(=O)N(c2ccc(NC(C)=O)cc2)C1c1cc(OC)c(OC)c(OC)c1 (stereo not shown) [Compound 8j, N-(4-(2-(3,4,5-Trimethoxyphenyl)-4-oxo-3-vinylazetidin-1-yl)phenyl)acetamide]	223 to 224	4.02 ± 0.64
C=CC1C(=O)N(c2ccc(SC)cc2)C1c1cc(OC)c(OC)c(OC)c1 (stereo not shown) [Compound 8k, 1-(4-(Methylthio)phenyl)-4-(3,4,5-trimethoxyphenyl)-3-vinylazetidin-2-one]	104 to 106	> 50
COc1ccc(C2CC(=O)N2c2cc(OC)c(OC)c(OC)c2)cc1O (stereo not shown) [Compound 9c, 4-(3-Hydroxy-4-methoxyphenyl)-1-(3,4,5-trimethoxyphenyl)-azetidin-2-one]	78 to 80	0.017
COc1ccc(C2C(C(C)O)C(=O)N2c2cc(OC)c(OC)c(OC)c2)cc1O (stereo not shown) [Compound 10a, 3-(1-Hydroxyethyl)-4-(3-hydroxy-4-methoxyphenyl)-1-(3,4,5-trimethoxyphenyl) azetidin-2-one]		0.065 ± 0.015
C/C=C/C(O)C1C(=O)N(c2cc(OC)c(OC)c(OC)c2)C1c1ccc(OC)cc1 (stereo not shown) [Compound 10b, 3-((E)-1-Hydroxybut-2-enyl)-1-(3,4,5-trimethoxyphenyl)-4-(4-methoxyphenyl) azetidin-2-one]	143 to 144	0.292 ± 0.05
COc1ccc(C2C(C(O)/C=C/c3ccccc3)C(=O)N2c2cc(OC)c(OC)c(OC)c2)cc1 (stereo not shown) [Compound 10e, 3-((E)-1-Hydroxy-3-phenylallyl)-1-(3,4,5-trimethoxyphenyl)-4-(4-methoxyphenyl) azetidin-2-one]		0.537 ± 0.08
C=CC(O)C1C(=O)N(c2cc(OC)c(OC)c(OC)c2)C1c1ccc(OC)c(O)c1 (stereo not shown) [Compound 10g, 4-(3-Hydroxy-4-methoxyphenyl)-3-(1-hydroxyallyl)-1-(3,4,5-trimethoxyphenyl) azetidin-2-one]		0.288 ± 0.076
C=CC(C)(O)C1C(=O)N(c2cc(OC)c(OC)c(OC)c2)C1c1ccc(OC)c(O)c1 (stereo not shown) [Compound 10h, 4-(3-Hydroxy-4-methoxy-phenyl)-3-(1-hydroxy-1-methylallyl)-1-(3,4,5-trimethoxy-phenyl)-azetidin-2-one]		0.467 ± 0.000253
COc1ccc(C2C(C(C)=O)C(=O)N2c2cc(OC)c(OC)c(OC)c2)cc1O (stereo not shown) [Compound 11, 3-Acetyl-4-(3-hydroxy-4-methoxyphenyl)-1-(3,4,5-trimethoxyphenyl)azetidin-2-one]		0.414 ± 0.132
COc1ccc(C2C(C(O)CO)C(=O)N2c2cc(OC)c(OC)c(OC)c2)cc1O (stereo not shown) [Compound 13, 3-(1,2-Dihydroxyethyl)-4-(3-hydroxy-4-methoxyphenyl)-1-(3,4,5-trimethoxyphenyl) azetidin-2-one]		0.069 ± 0.029
C=CC1C(=O)N(c2cc(OC)c(OC)c(OC)c2)C1c1ccc(OC)c(NC(=O)C(C)N)c1 (stereo not shown) [Compound 15, 2-Amino-N-(2-methoxy-5-(1-(3,4,5-trimethoxyphenyl)-4-oxo-3-vinylazetidin-2-yl)phenyl)propanamide]		3.25 ± 0.27
